Laboratory results as given in publication PMC4949516 (Chemmedchem, 2016).

Key:
PKA catalytic subunit = molecular target: T1, PKA catalytic subunit (Bos taurus, UniProt P00517); test: fluorescence polarisation competition with compound […]; assay type: binding
T1 construct: gene PRKACA; native catalytic subunit purified from bovine heart PKA (P5511) by column chromatography

[1] = molecular target: T2, PKA (cAMP-dependent protein kinase), semi-pure tetramer (Bos taurus, UniProt P00517); test: fluorescence polarisation saturation binding, one-site fit; conditions: read-out: binding constant
T2 construct: gene PRKACA; native, semi-pure from bovine heart; whole tetramer of two catalytic and two regulatory subunits; with cAMP-dependent protein kinase type II-alpha regulatory subunit

IC50 (PKA catalytic subunit) | Kd [1] | SMILES
3.9 µM | – | CC1CNCCN1S(=O)(=O)c1cccc2cnccc12 (centres unmarked) [H‐7]
– | 0.044 µM | CO[C@@H]1[C@H](N(C)CC(=O)NCCNC(=O)CCC(=O)NCCOCCOCCNC(=S)Nc2ccc(-c3c4ccc(=O)cc-4oc4cc(O)ccc34)c(C(=O)O)c2)C[C@H]2O[C@]1(C)n1c3ccccc3c3c4c(c5c6ccccc6n2c5c31)C(=O)NC4 [compound 8, 2‐(6‐Hydroxy‐3‐oxo‐3H‐xanthen‐9‐yl)‐5‐(3‐(2‐((5R,7R,8R,9S)‐8‐methoxy‐9‐methyl‐16‐oxo‐6,7,8,9,15,16‐hexahydro‐5H,14H‐17‐oxa‐4b,9a,15‐triaza‐5,9‐methanodibenzo[b,h]cyclonona[jkl]‐cyclopenta[e]‐as‐indacen‐7‐yl)‐4,9,12‐trioxo‐16,19‐dioxa‐2,5,8,13‐tetraazahenicosan‐21‐yl)thioureido)benzoic acid]
